Laboratory results from ChEMBL document CHEMBL1201862, “PubChem BioAssay data set” (2004).
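Test compounds were applied to cells in 96-well plates for 48 hours at 5 doses. The concentration for 50% growth inhibition is given as GI50.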 Calls of active or inactive are those of the source. No stated cut-off is given here; in the data, active = GI50 up to about 1.1 µM and inactive = higher.

What was measured:
Assay in all cases: growth of human tumour cells (NCI), 48 h
TK-10 = tested on: TK-10
MOLT-4 = tested on: MOLT-4
SF-539 = tested on: SF-539
UACC-62 = tested on: UACC-62
HCT-116 = tested on: HCT-116
A498 = tested on: A498
SK-OV-3 = tested on: SK-OV-3
OVCAR-5 = tested on: OVCAR-5
HOP-62 = tested on: HOP-62
HT-29 = tested on: HT-29
HOP-92 = tested on: HOP-92
SK-MEL-2 = tested on: SK-MEL-2
MDA-MB-231 = tested on: MDA-MB-231
PC-3 = tested on: PC-3
XF498 = tested on: XF498
SK-MEL-5 = tested on: SK-MEL-5
MCF7 = tested on: MCF7
NCI-H23 = tested on: NCI-H23
OVCAR-3 = tested on: OVCAR-3
RPMI-8226 = tested on: RPMI-8226

Measured: GI50

CCNC(=O)/C(=C/c1ccc(OC)cc1)c1cc(OC)c(OC)c(OC)c1
inactive: TK-10 20.5 µM | MOLT-4 7.35 µM | SF-539 7.87 µM | UACC-62 3.8 µM | HCT-116 6.18 µM | A498 14.9 µM | SK-OV-3 6.85 µM | OVCAR-5 63.8 µM | HOP-62 10.9 µM | HT-29 3.41 µM | HOP-92 28.3 µM | SK-MEL-2 7.57 µM | MDA-MB-231 6.41 µM | PC-3 3.52 µM | XF498 17.3 µM | SK-MEL-5 3.71 µM | MCF7 4.84 µM | NCI-H23 13 µM | OVCAR-3 3.78 µM | RPMI-8226 14 µM

COc1ccc(N2C(=O)C3c4[nH]c5ccc(OC)cc5c4C4CCC(C(C)(C)C)CC4C3C2=O)cc1 (centres undefined)
inactive: TK-10 33.3 µM | MOLT-4 28.6 µM | SF-539 12.8 µM | UACC-62 27.2 µM | HCT-116 10.5 µM | A498 19.6 µM | SK-OV-3 15.2 µM | OVCAR-5 > 100 µM | HOP-62 16 µM | HT-29 32.5 µM | HOP-92 10.7 µM | SK-MEL-2 17.5 µM | XF498 56.2 µM | SK-MEL-5 21.1 µM | NCI-H23 19.1 µM | OVCAR-3 92.3 µM | RPMI-8226 57.1 µM

CC/N=C(/C#N)NCC
inactive: TK-10 > 100 µM | MOLT-4 > 100 µM | SF-539 > 100 µM | UACC-62 > 100 µM | HCT-116 > 100 µM | A498 > 100 µM | SK-OV-3 > 100 µM | OVCAR-5 > 100 µM | HOP-62 > 100 µM | HT-29 40.2 µM | HOP-92 > 100 µM | SK-MEL-2 > 100 µM | XF498 > 100 µM | SK-MEL-5 > 100 µM | NCI-H23 > 100 µM | OVCAR-3 > 100 µM | RPMI-8226 30.4 µM
